Results from patent US20240409585A1, “MACROCYCLIC IMMUNOMODULATORS” (priority 2021, published 2024).
Numbered stars: 1 amine (or outer) side, 2 acyl side, 3 side chain; on linkers, the order of the positions; unused ones are H or OH. Bridge positions count the residues as written; N and C are the ends. Square brackets hold non-standard residues; d marks the D form. Peptide text beside a SMILES is read from it. * marks the point of attachment. ξ: configuration not given here. X25 = N#CCCc1ccc(-c2ccc(C[C@H](N[*:1])C(=O)[*:2])cc2)cc1; Phe(4-COOH) = N[C@@H](Cc1ccc(C(=O)O)cc1)C(=O)O; Bip = N[C@@H](Cc1ccc(-c2ccccc2)cc1)C(=O)O; Phe(3-Me) = Cc1cccc(C[C@H](N)C(=O)O)c1; Val(3-OH) = CC(C)(O)[C@H](N)C(=O)O; 3Pal = N[C@@H](Cc1cccnc1)C(=O)O; 4Pal = N[C@@H](Cc1ccncc1)C(=O)O; Cha = N[C@@H](CC1CCCCC1)C(=O)O; Cit = NC(=O)NCCC[C@H](N)C(=O)O; Ile(3ξ) = CCC(C)[C@H](N)C(=O)O; Thr(3ξ) = CC(O)[C@H](N)C(=O)O; Carboxymethyl = O=C(O)C*; NMeA = CN[C@@H](C)C(=O)O; Orn = NCCC[C@H](N)C(=O)O; Dab = NCC[C@H](N)C(=O)O; Dap = NC[C@H](N)C(=O)O

These compounds were tested against T1, PE-labeled human PD-L1-Ig binding to Jurkat cell line over-expressing human PD-1 (Jurkat-PD-1) (Homo sapiens, UniProt Q15116) (assay: Jurkat-PD-1 Cell Binding High-Content Screening Assay (CBA): Method 1). Conditions: Jurkat-hPD-1 cells, PE-labeled PD-L1-Ig 20 nM final; read-out: Jurkat HPDL1 PD1 IC50 (uM) (Method 1).
T1 construct: expressed in transfected cells; host or cells: Jurkat
T1 sequence (Q15116 25-288): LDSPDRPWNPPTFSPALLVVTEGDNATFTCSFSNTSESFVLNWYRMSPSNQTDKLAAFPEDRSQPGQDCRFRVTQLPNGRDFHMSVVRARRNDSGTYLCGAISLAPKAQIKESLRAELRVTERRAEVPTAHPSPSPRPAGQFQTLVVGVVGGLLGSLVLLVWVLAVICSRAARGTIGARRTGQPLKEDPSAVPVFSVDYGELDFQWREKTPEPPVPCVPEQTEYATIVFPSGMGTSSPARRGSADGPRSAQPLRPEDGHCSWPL

Question: With Cc1cccc(C[C@@H]2NC(=O)[C@H](CC(=O)O)NC(=O)[C@H](Cc3ccc(C(=O)O)cc3)NC(=O)[C@H](Cc3ccncc3)NC(=O)CSC[C@@H](C(N)=O)NC(=O)[C@H]([C@@H](C)O)NC(=O)[C@H](C(C)C)NC(=O)[C@H](CC(C)C)NC(=O)[C@H](CCN)NC(=O)[C@@H](CC(C)C)NC(=O)[C@H](C)N(C)C(=O)[C@H](CCCNC(N)=O)NC(=O)[C@H](Cc3ccc(-c4ccccc4)cc3)NC(=O)[C@H](C(C)C)NC2=O)c1 [Compound 1898] ({CH2CO}-[4Pal][Phe(4-COOH)]D[Phe(3-Me)]V[Bip][Cit][NMeA][dL][Dab]LVTC-NH2; thioether N-14) as the compound, how does the IC50 read?
Answer: Its IC50 is 0.07 µM.

Question: For CC(C)C[C@H]1NC(=O)[C@H](C)N(C)C(=O)[C@H](C(C)C)NC(=O)[C@H](Cc2ccc(-c3ccccc3)cc2)NC(=O)[C@H](C(C)C)NC(=O)[C@H](Cc2c[nH]c3ccccc23)NC(=O)[C@H](CC(=O)O)NC(=O)[C@H](Cc2ccc(O)cc2)NC(=O)[C@H](CN)NC(=O)CSC[C@@H](C(=O)N[C@@H](C)C(N)=O)NC(=O)[C@H]([C@@H](C)O)NC(=O)[C@H](C(C)C)NC(=O)[C@H](CC2CCCCC2)NC(=O)[C@H](CCCNC(=N)N)NC1=O [Compound 1485] ({CH2CO}-[Dap]YDWV[Bip]V[NMeA][dL]R[Cha]VTCA-NH2; thioether N-14), which IC50 is on record?
Answer: Its IC50 is 0.39 µM.

Question: For CCNC(=O)[C@H](CCN)NC(=O)[C@@H]1CSCC(=O)N[C@@H](Cc2cccnc2)C(=O)N[C@@H](Cc2ccc(OCC(=O)O)cc2)C(=O)N[C@@H](CC(=O)O)C(=O)N[C@@H](Cc2cccc(C)c2)C(=O)N[C@@H](Cc2ccc(OCC(=O)O)cc2)C(=O)N[C@@H](Cc2ccc(-c3ccccc3)cc2)C(=O)N[C@@H](Cc2ccc(OCC(=O)O)cc2)C(=O)N(C)[C@@H](C)C(=O)N[C@H](CC(C)C)C(=O)N[C@@H](CCN)C(=O)N[C@@H](CC2CCCCC2)C(=O)N[C@@H](C(C)C)C(=O)N[C@@H]([C@@H](C)O)C(=O)N1 [Compound 1856] ({CH2CO}-[3Pal]Y(Carboxymethyl)D[Phe(3-Me)]Y(Carboxymethyl)[Bip]Y(Carboxymethyl)[NMeA][dL][Dab][Cha]VTC[Dab]-NHEt; thioether N-14), which IC50 is on record?
Answer: The IC50 was 0.02 µM.

Question: For CCC(C)[C@@H]1NC(=O)[C@H](Cc2ccc(-c3ccccc3)cc2)NC(=O)[C@H](C(C)C)NC(=O)[C@H](Cc2cccc(C)c2)NC(=O)[C@H](CC(=O)O)NC(=O)[C@H](Cc2ccc(C(=O)O)cc2)NC(=O)[C@H](Cc2ccncc2)NC(=O)CSC[C@@H](C(N)=O)NC(=O)[C@H](CCCN)NC(=O)[C@H](C(C)C)NC(=O)[C@H](CC2CCCCC2)NC(=O)[C@H](CCN)NC(=O)[C@@H](CC(C)C)NC(=O)[C@H](C)N(C)C1=O (stereo partly drawn) [Compound 1899] ({CH2CO}-[4Pal][Phe(4-COOH)]D[Phe(3-Me)]V[Bip][Ile(3ξ)][NMeA][dL][Dab][Cha]V[Orn]C-NH2; thioether N-14), which IC50 is on record?
Answer: The IC50 was 0.01 µM.

Question: Which IC50 does the source give for CC(C)C[C@H]1NC(=O)[C@H](C)N(C)C(=O)[C@H](C(C)C)NC(=O)[C@H](Cc2ccc(-c3ccccc3)cc2)NC(=O)[C@H](C(C)C)NC(=O)[C@H](Cc2c[nH]c3ccccc23)NC(=O)[C@H](CC(=O)O)NC(=O)[C@H](Cc2ccncc2)NC(=O)[C@H](Cc2ccc(OCC(=O)O)cc2)NC(=O)CSC[C@@H](C(N)=O)NC(=O)[C@H](CO)NC(=O)[C@H](C(C)C)NC(=O)[C@H](CC2CCCCC2)NC(=O)[C@H](CCCCN)NC1=O [Compound 2245] ({CH2CO}-Y(Carboxymethyl)[4Pal]DWV[Bip]V[NMeA][dL]K[Cha]VSC-NH2; thioether N-14) here?
Answer: Its IC50 is 0.01 µM.

Question: Cc1cccc(C[C@@H]2NC(=O)[C@H](CC(=O)O)NC(=O)[C@H](Cc3ccc(OCC(=O)O)cc3)NC(=O)[C@H](C(C)O)NC(=O)CSC[C@@H](C(N)=O)NC(=O)[C@H](CCCCN)NC(=O)[C@H](C(C)C)NC(=O)[C@H](CC(C)C)NC(=O)[C@H](CC(N)=O)NC(=O)[C@@H](CC(C)C)NC(=O)[C@H](C)N(C)C(=O)[C@H](C(C)C)NC(=O)[C@H](Cc3ccc(-c4ccccc4)cc3)NC(=O)[C@H](CC(C)C)NC2=O)c1 (stereo partly drawn) [Compound 2259] ({CH2CO}-[Thr(3ξ)]Y(Carboxymethyl)D[Phe(3-Me)]L[Bip]V[NMeA][dL]NLVKC-NH2; thioether N-14) was tested. Which IC50 did it give?
Answer: Its IC50 is 0.1 µM.

Question: With CC(C)C[C@@H]1NC(=O)[C@H](CCN)NC(=O)[C@@H](CC(C)C)NC(=O)[C@H](C)N(C)C(=O)[C@H](CCCNC(N)=O)NC(=O)[C@H](Cc2ccc(-c3ccccc3)cc2)NC(=O)[C@H](C(C)C)NC(=O)[C@H](Cc2c[nH]c3ccccc23)NC(=O)[C@H](CC(=O)O)NC(=O)[C@H](Cc2ccc(O)cc2)NC(=O)[C@H](Cc2ccc(C(=O)O)cc2)NC(=O)CSC[C@@H](C(=O)N[C@@H](C)C(N)=O)NC(=O)[C@H]([C@@H](C)O)NC(=O)[C@H](C(C)C)NC1=O [Compound 1326] ({CH2CO}-[Phe(4-COOH)]YDWV[Bip][Cit][NMeA][dL][Dab]LVTCA-NH2; thioether N-14) as the compound, how does the IC50 read?
Answer: Its IC50 is 0.02 µM.

Question: For CC(C)C[C@@H]1NC(=O)[C@H](CCCNC(=N)N)NC(=O)[C@@H](Cc2cnc[nH]2)NC(=O)[C@H](C)N(C)C(=O)[C@H](CCCNC(=N)N)NC(=O)[C@H](Cc2ccc(-c3ccccc3)cc2)NC(=O)[C@H](C(C)C)NC(=O)[C@H](Cc2c[nH]c3ccccc23)NC(=O)[C@H](CC(=O)O)NC(=O)[C@H](Cc2ccc(O)cc2)NC(=O)[C@H](Cc2ccccc2)NC(=O)CSC[C@@H](C(=O)NCC(N)=O)NC(=O)[C@H](CO)NC(=O)[C@H](C(C)C)NC1=O [Compound 1022] ({CH2CO}-FYDWV[Bip]R[NMeA][dH]RLVSCG-NH2; thioether N-14), which IC50 is on record?
Answer: The IC50 was 0.64 µM.

Question: Which IC50 does the source give for CC(C)C[C@@H]1NC(=O)[C@H](CCCCN)NC(=O)[C@@H](CC(C)C)NC(=O)[C@H](C)N(C)C(=O)[C@H](CCCNC(=N)N)NC(=O)[C@H](Cc2ccc(-c3ccccc3)cc2)NC(=O)[C@H](C(C)C)NC(=O)[C@H](Cc2c[nH]c3ccccc23)NC(=O)[C@H](CC(=O)O)NC(=O)[C@H](Cc2ccc(O)cc2)NC(=O)[C@H](CC(N)=O)NC(=O)CSC[C@@H](C(=O)N[C@@H](CCC(=O)O)C(N)=O)NC(=O)[C@H]([C@@H](C)O)NC(=O)[C@H](C(C)C)NC1=O [Compound 1173] ({CH2CO}-NYDWV[Bip]R[NMeA][dL]KLVTCE-NH2; thioether N-14) here?
Answer: Its IC50 is 0.22 µM.

Question: How did the IC50 turn out when CC(C)C[C@@H]1NC(=O)[C@H](CCCNC(=N)N)NC(=O)[C@@H](CC(C)C)NC(=O)[C@H](C)N(C)C(=O)[C@H](CCCNC(N)=O)NC(=O)[C@H](Cc2ccc(-c3ccccc3)cc2)NC(=O)[C@H](C(C)C)NC(=O)[C@H](Cc2c[nH]c3ccccc23)NC(=O)[C@H](CC(=O)O)NC(=O)[C@H](Cc2ccc(O)cc2)NC(=O)[C@H](CC(N)=O)NC(=O)CSC[C@@H](C(=O)N[C@@H](CCC(=O)O)C(N)=O)NC(=O)[C@H](CO)NC(=O)[C@H](C(C)C)NC1=O [Compound 1236] ({CH2CO}-NYDWV[Bip][Cit][NMeA][dL]RLVSCE-NH2; thioether N-14) was run?
Answer: Its IC50 is 0.11 µM.

Question: How did the IC50 turn out when Cc1cccc(C[C@@H]2NC(=O)[C@H](CC(=O)O)NC(=O)[C@H](Cc3ccc(OCC(=O)O)cc3)NC(=O)[C@H](Cc3ccncc3)NC(=O)CSC[C@@H](C(=O)N[C@@H](CCN)C(N)=O)NC(=O)[C@H](CC(=O)O)NC(=O)[C@H](C(C)(C)O)NC(=O)[C@H](CC3CCCCC3)NC(=O)[C@H](CCN)NC(=O)[C@@H](CC(C)C)NC(=O)[C@H](C)N(C)C(=O)[C@H](Cc3ccc(OCC(=O)O)cc3)NC(=O)[C@H](Cc3ccc(-c4ccccc4)cc3)NC(=O)[C@H](Cc3ccc(OCC(=O)O)cc3)NC2=O)c1 [Compound 2190] ({CH2CO}-[4Pal]Y(Carboxymethyl)D[Phe(3-Me)]Y(Carboxymethyl)[Bip]Y(Carboxymethyl)[NMeA][dL][Dab][Cha][Val(3-OH)]DC[Dab]-NH2; thioether N-14) was run?
Answer: Its IC50 is 0.03 µM.

Question: CC(C)C[C@@H]1NC(=O)[C@H](CCN)NC(=O)[C@@H](CC(C)C)NC(=O)[C@H](C)N(C)C(=O)CNC(=O)[C@H](Cc2ccc(-c3ccccc3)cc2)NC(=O)[C@H](C(C)C)NC(=O)[C@H](Cc2c[nH]c3ccccc23)NC(=O)[C@H](CC(=O)O)NC(=O)[C@H](Cc2ccc(O)cc2)NC(=O)[C@H](CC(N)=O)NC(=O)CSC[C@@H](C(=O)N[C@@H](C)C(N)=O)NC(=O)[C@H]([C@@H](C)O)NC(=O)[C@H](C(C)C)NC1=O [Compound 1281] ({CH2CO}-NYDWV[Bip]G[NMeA][dL][Dab]LVTCA-NH2; thioether N-14) was tested. Which IC50 did it give?
Answer: The IC50 was 0.33 µM.

Question: Which IC50 does the source give for CCC(C)[C@@H]1NC(=O)[C@H](Cc2ccc(-c3ccccc3)cc2)NC(=O)[C@H](C(C)C)NC(=O)[C@H](Cc2c[nH]c3ccccc23)NC(=O)[C@H](CC(=O)O)NC(=O)[C@H](Cc2ccc(OCC(=O)O)cc2)NC(=O)[C@H](CN)NC(=O)CSC[C@@H](C(=O)N[C@@H](C)C(N)=O)NC(=O)[C@H](C(C)O)NC(=O)[C@H](C(C)C)NC(=O)[C@H](CC(C)C)NC(=O)[C@H](CCN)NC(=O)[C@@H](CC(C)C)NC(=O)[C@H](C)N(C)C1=O (stereo partly drawn) [Compound 2084] ({CH2CO}-[Dap]Y(Carboxymethyl)DWV[Bip][Ile(3ξ)][NMeA][dL][Dab]LV[Thr(3ξ)]CA-NH2; thioether N-14) here?
Answer: Its IC50 is 0.07 µM.

Question: With CCC(C)[C@@H]1NC(=O)[C@H](Cc2ccc(-c3ccccc3)cc2)NC(=O)[C@H](C(C)C)NC(=O)[C@H](Cc2c[nH]c3ccccc23)NC(=O)[C@H](CC(=O)O)NC(=O)[C@H](Cc2ccc(OCC(=O)O)cc2)NC(=O)[C@H](C(C)O)NC(=O)CSC[C@@H](C(=O)N[C@@H](CCCN)C(N)=O)NC(=O)[C@H](C(C)O)NC(=O)[C@H](C(C)C)NC(=O)[C@H](CC2CCCCC2)NC(=O)[C@H](CCN)NC(=O)[C@@H](CC(C)C)NC(=O)[C@H](C)N(C)C1=O (stereo partly drawn) [Compound 2153] ({CH2CO}-[Thr(3ξ)]Y(Carboxymethyl)DWV[Bip][Ile(3ξ)][NMeA][dL][Dab][Cha]V[Thr(3ξ)]C[Orn]-NH2; thioether N-14) as the compound, how does the IC50 read?
Answer: The IC50 was 0.02 µM.

Question: For CC(C)C[C@@H]1NC(=O)[C@H](CCN)NC(=O)[C@@H](CC(C)C)NC(=O)[C@H](C)N(C)C(=O)[C@H](CCCNC(=N)N)NC(=O)[C@H](Cc2ccc(-c3ccc(CCC#N)cc3)cc2)NC(=O)[C@H](C(C)C)NC(=O)[C@H](Cc2c[nH]c3ccccc23)NC(=O)[C@H](CC(=O)O)NC(=O)[C@H](Cc2ccc(O)cc2)NC(=O)[C@H](CC(N)=O)NC(=O)CSC[C@@H](C(=O)N[C@@H](C)C(N)=O)NC(=O)[C@H]([C@@H](C)O)NC(=O)[C@H](C(C)C)NC1=O [Compound 1213] ({CH2CO}-NYDWV[X25]R[NMeA][dL][Dab]LVTCA-NH2; thioether N-14), which IC50 is on record?
Answer: Its IC50 is 0.25 µM.
